Laboratory results: patent US20090099237A1, “Methods of treating inflammatory diseases” (Roche Palo Alto LLC, priority 2007, published 2009)

Tests used:
Experiment in all cases: KinomeScan kinase profiling
Type in all cases: binding
Conditions in all cases: 10 μM
SYK = target: T1, SYK (Homo sapiens, UniProt P43405)
T1 construct: purchased Ambit Biosciences
Source text: (§1) The selectivity of a given CK1α, CK1α-CK1δ, CK1α-CK1ε or CK1α-CK1δ-CK1ε inhibitor compound can be determined by testing the compound against a panel of known kinases. An example of such a kinase profiling technology is the “KinomeScan” from Ambit Biosciences in which compounds can be screened for their modulatory activities against more than 200 known kinases.

JNK3 = target: T2, JNK3 (Homo sapiens, UniProt P53779)
T2 construct: purchased Ambit Biosciences
Source text: as §1

EPHA4 = target: T3, EPHA4 (Homo sapiens, UniProt P54764)
T3 construct: purchased Ambit Biosciences (San Diego, Calif.)
T3 sequence (P54764 20-986): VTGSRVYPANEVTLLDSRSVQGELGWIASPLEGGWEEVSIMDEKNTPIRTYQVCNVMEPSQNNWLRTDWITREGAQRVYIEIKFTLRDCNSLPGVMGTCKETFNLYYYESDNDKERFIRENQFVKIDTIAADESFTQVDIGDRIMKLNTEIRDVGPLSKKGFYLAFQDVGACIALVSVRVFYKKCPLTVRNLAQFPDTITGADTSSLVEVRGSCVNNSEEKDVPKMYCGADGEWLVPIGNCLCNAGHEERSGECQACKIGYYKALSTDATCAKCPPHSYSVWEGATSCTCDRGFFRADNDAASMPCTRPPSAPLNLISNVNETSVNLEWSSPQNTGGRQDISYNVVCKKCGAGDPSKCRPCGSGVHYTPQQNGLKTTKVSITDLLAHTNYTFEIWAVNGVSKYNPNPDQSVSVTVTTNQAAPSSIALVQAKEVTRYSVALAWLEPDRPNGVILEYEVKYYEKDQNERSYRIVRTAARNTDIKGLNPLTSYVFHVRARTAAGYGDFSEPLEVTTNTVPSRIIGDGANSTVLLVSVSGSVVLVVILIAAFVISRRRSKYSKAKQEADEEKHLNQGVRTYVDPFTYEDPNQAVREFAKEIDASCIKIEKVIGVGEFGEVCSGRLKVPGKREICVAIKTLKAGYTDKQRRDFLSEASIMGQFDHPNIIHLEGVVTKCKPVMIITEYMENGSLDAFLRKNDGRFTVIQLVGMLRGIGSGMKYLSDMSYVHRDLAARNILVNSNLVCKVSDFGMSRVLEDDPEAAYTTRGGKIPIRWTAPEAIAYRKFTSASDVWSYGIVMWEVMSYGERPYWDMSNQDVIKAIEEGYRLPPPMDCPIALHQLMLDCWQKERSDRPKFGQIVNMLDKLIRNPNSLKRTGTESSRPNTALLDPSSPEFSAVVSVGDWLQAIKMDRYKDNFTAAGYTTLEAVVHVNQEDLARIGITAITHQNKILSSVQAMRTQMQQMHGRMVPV
Source text: as §1

PTK2B = target: T4, PTK2B (Homo sapiens, UniProt Q14289)
T4 construct: purchased Ambit Biosciences
Source text: as §1

CLK3 = target: T5, CLK3 (Homo sapiens, UniProt P49761)
T5 construct: purchased Ambit Biosciences (San Diego, Calif.)
Source text: as §1

INSR = target: T6, INSR (Homo sapiens, UniProt P06213)
T6 construct: purchased Ambit Biosciences
T6 sequence (P06213 28-1382): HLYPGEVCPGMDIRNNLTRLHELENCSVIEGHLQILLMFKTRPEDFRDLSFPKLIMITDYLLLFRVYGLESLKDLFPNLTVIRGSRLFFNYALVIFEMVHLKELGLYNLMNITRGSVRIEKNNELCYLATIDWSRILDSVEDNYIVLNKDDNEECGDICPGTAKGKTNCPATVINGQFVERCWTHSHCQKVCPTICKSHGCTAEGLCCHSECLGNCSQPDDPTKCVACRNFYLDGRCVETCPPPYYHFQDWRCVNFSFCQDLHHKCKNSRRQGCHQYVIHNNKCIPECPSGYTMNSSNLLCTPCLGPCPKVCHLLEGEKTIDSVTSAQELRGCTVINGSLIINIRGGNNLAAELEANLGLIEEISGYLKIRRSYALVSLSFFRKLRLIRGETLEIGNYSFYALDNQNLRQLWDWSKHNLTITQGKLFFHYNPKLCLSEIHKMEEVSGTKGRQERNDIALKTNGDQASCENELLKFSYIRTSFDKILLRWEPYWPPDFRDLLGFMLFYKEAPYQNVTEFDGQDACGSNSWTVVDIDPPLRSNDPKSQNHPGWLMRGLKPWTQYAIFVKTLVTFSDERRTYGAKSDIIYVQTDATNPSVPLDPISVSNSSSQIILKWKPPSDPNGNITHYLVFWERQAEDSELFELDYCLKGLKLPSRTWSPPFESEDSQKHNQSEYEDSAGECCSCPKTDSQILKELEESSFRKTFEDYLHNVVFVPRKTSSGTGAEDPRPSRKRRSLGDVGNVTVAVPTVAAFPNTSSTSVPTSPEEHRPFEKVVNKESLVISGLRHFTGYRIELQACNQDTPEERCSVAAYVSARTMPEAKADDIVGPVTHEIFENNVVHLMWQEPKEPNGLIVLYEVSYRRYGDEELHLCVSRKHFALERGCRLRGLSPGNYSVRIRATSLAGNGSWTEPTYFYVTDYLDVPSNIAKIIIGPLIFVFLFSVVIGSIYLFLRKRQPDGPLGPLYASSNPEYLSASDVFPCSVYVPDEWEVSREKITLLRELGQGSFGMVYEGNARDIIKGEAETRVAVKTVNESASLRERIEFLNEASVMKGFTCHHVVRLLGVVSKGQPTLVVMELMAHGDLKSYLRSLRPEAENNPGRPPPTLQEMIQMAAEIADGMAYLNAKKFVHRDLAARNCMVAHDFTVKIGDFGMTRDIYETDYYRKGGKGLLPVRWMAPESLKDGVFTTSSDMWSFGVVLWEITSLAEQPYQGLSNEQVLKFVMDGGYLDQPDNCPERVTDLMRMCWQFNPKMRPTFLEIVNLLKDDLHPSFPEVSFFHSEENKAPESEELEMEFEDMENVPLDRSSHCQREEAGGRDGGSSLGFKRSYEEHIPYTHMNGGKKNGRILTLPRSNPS
Source text: as §1

PDGFRB = PDGFRB (Homo sapiens, UniProt P09619)
Source text: as §1

EPHA5 = target: T7, EPHA5 (Homo sapiens, UniProt P54756)
T7 construct: purchased Ambit Biosciences (San Diego, Calif.)
T7 sequence (P54756 25-1037): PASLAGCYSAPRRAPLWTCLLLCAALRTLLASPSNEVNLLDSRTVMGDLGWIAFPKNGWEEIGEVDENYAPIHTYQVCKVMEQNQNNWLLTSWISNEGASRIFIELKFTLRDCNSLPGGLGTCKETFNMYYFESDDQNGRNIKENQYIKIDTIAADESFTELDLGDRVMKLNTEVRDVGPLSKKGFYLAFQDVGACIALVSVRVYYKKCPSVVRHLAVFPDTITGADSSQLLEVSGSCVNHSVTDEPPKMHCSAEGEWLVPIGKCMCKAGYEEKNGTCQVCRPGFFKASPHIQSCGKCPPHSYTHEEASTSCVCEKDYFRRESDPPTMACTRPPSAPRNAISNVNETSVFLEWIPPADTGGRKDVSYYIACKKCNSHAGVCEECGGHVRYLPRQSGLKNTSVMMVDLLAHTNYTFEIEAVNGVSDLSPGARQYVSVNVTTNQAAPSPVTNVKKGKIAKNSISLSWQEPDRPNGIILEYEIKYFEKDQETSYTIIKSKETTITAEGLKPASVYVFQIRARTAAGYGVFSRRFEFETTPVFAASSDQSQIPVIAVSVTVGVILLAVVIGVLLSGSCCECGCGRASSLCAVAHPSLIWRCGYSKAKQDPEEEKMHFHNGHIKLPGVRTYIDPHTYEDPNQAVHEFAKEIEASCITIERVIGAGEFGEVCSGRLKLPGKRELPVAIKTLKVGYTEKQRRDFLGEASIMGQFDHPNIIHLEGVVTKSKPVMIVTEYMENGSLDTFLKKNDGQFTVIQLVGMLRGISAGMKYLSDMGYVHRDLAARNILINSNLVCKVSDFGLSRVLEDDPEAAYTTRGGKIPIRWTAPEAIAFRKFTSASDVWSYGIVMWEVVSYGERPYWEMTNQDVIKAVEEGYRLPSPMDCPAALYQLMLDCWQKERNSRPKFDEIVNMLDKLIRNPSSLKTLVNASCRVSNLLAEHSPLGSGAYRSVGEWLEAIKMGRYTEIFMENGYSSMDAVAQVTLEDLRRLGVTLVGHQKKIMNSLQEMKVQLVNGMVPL
Source text: as §1

FRK = target: T8, FRK (Homo sapiens, UniProt P42685)
T8 construct: purchased Ambit Biosciences
Source text: as §1

LTK = LTK (Homo sapiens, UniProt P29376)
Source text: as §1

CAMK2G = target: T9, CAMK2G (Homo sapiens, UniProt Q13555)
T9 construct: purchased Ambit Biosciences
Source text: as §1

EPHA8 = target: T10, EPHA8 (Homo sapiens, UniProt P29322)
T10 construct: purchased Ambit Biosciences (San Diego, Calif.)
Source text: as §1

CSNK2A1 = target: T11, CSNK2A1 (Homo sapiens, UniProt P68400)
T11 construct: purchased Ambit Biosciences (San Diego, Calif.)
Source text: as §1

STK17A = target: T12, STK17A (Homo sapiens, UniProt Q9UEE5)
T12 construct: purchased Ambit Biosciences
Source text: as §1

CSNK1G2 = target: T13, CSNK1G2 (Homo sapiens, UniProt P78368)
T13 construct: purchased Ambit Biosciences (San Diego, Calif.)
Source text: as §1

BLK = target: T14, BLK (Homo sapiens, UniProt P51451)
T14 construct: purchased Ambit Biosciences
Source text: as §1

p38-gamma = p38-gamma (Homo sapiens, UniProt P53778)
Source text: as §1

FGFR1 = target: T15, FGFR1 (Homo sapiens, UniProt P11362)
T15 construct: purchased Ambit Biosciences
Source text: as §1

BMX = target: T16, BMX (Homo sapiens, UniProt P51813)
T16 construct: purchased Ambit Biosciences
Source text: as §1

CLK4 = target: T17, CLK4 (Homo sapiens, UniProt Q9HAZ1)
T17 construct: purchased Ambit Biosciences (San Diego, Calif.)
Source text: as §1

PIM2 = target: T18, PIM2 (Homo sapiens, UniProt Q9P1W9)
T18 construct: purchased Ambit Biosciences
Source text: as §1

MAP4K5 = MAP4K5 (Homo sapiens, UniProt Q9Y4K4)
Source text: as §1

STK36 = target: T19, STK36 (Homo sapiens, UniProt Q9NRP7)
T19 construct: purchased Ambit Biosciences
Source text: as §1

PLK4 = target: T20, PLK4 (Homo sapiens, UniProt O00444)
T20 construct: purchased Ambit Biosciences
Source text: as §1

NEK2 = NEK2 (Homo sapiens, UniProt P51955)
Source text: as §1

TTK = target: T21, TTK (Homo sapiens, UniProt P33981)
T21 construct: purchased Ambit Biosciences
Source text: as §1

EPHA6 = target: T22, EPHA6 (Homo sapiens, UniProt Q9UF33)
T22 construct: purchased Ambit Biosciences (San Diego, Calif.)
Source text: as §1

STK10 = target: T23, STK10 (Homo sapiens, UniProt O94804)
T23 construct: purchased Ambit Biosciences
T23 sequence (O94804 whole entry): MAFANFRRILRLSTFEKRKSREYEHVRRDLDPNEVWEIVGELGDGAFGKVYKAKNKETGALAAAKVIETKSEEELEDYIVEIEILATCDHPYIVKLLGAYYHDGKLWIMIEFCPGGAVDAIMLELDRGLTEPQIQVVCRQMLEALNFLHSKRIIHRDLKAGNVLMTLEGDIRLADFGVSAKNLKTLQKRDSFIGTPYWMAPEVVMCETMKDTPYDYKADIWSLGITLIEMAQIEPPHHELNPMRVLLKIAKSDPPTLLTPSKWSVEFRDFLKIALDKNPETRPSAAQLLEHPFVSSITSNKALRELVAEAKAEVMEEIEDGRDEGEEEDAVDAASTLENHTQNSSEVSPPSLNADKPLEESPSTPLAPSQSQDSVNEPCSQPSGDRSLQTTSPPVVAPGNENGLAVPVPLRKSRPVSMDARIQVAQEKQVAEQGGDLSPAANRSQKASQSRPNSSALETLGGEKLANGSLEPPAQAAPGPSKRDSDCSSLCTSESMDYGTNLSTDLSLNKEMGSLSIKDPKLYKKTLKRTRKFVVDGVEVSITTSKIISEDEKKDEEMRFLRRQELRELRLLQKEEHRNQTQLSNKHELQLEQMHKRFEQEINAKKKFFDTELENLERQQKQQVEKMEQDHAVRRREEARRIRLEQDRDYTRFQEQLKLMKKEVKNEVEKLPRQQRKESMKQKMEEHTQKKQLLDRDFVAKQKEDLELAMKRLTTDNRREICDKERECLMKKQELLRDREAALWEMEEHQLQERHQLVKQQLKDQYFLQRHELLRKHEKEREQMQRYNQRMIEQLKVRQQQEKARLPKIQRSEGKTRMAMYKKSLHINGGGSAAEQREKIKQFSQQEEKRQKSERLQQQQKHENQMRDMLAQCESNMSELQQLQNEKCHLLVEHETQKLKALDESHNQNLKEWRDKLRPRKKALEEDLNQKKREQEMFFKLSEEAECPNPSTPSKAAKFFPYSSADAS
Source text: as §1

PDGFRA = PDGFRA (Homo sapiens, UniProt P16234)
Source text: as §1

CAMK2B = target: T24, CAMK2B (Homo sapiens, UniProt Q13554)
T24 construct: purchased Ambit Biosciences
Source text: as §1

YES = target: T25, YES (Homo sapiens, UniProt P07947)
T25 construct: purchased Ambit Biosciences
Source text: as §1

GAK = target: T26, GAK (Homo sapiens, UniProt O14976)
T26 construct: purchased Ambit Biosciences
Source text: as §1

TRKA = target: T27, TRKA (Homo sapiens, UniProt P04629)
T27 construct: purchased Ambit Biosciences
T27 sequence (P04629 33-796): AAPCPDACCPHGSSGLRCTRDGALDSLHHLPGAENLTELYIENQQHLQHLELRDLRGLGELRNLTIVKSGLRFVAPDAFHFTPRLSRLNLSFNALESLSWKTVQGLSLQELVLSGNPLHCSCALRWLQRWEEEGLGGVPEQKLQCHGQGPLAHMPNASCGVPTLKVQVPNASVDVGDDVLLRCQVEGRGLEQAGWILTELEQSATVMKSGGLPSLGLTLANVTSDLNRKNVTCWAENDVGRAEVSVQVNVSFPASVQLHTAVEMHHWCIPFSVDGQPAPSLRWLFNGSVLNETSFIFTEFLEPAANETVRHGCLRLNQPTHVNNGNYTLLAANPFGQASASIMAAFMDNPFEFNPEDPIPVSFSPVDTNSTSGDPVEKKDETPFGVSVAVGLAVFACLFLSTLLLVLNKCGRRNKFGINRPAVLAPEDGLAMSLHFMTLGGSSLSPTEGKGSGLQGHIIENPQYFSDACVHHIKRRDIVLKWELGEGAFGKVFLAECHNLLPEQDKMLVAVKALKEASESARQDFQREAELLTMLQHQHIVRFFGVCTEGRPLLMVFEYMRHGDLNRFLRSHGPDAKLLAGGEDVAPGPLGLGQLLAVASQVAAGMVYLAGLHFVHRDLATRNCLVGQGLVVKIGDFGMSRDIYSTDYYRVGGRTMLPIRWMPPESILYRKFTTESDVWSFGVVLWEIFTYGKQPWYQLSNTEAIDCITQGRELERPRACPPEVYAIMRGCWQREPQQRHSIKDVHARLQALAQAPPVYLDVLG
Source text: as §1

AKT1 = target: T28, AKT1 (Homo sapiens, UniProt P31749)
T28 construct: purchased Ambit Biosciences
Source text: as §1

CAMKK2 = target: T29, CAMKK2 (Homo sapiens, UniProt Q96RR4)
T29 construct: purchased Ambit Biosciences (San Diego, Calif.)
Source text: as §1

HCK = target: T30, HCK (Homo sapiens, UniProt P08631)
T30 construct: purchased Ambit Biosciences
Source text: as §1

STK17B = target: T31, STK17B (Homo sapiens, UniProt O94768)
T31 construct: purchased Ambit Biosciences
Source text: as §1

BIKE = target: T32, BIKE (Homo sapiens, UniProt Q9NSY1)
T32 construct: purchased Ambit Biosciences
Source text: as §1

ITK = target: T33, ITK (Homo sapiens, UniProt Q08881)
T33 construct: purchased Ambit Biosciences
Source text: as §1

| Structure (SMILES) | % Binding (SYK) | % Binding (JNK3) | % Binding (EPHA4) | % Binding (PTK2B) | % Binding (CLK3) | % Binding (INSR) | % Binding (PDGFRB) | % Binding (EPHA5) | % Binding (FRK) | % Binding (LTK) | % Binding (CAMK2G) | % Binding (EPHA8) | % Binding (CSNK2A1) | % Binding (STK17A) | % Binding (CSNK1G2) | % Binding (BLK) | % Binding (p38-gamma) | % Binding (FGFR1) | % Binding (BMX) | % Binding (CLK4) | further results |
| --- | --- | --- | --- | --- | --- | --- | --- | --- | --- | --- | --- | --- | --- | --- | --- | --- | --- | --- | --- | --- | --- |
| NC(=O)c1cc(-c2ccncc2)c[nH]1 [Compound A, 4-Pyridin-4-yl-1H-pyrrole-2-carboxylic acid amide] | <50% | <50% | <50% | <50% | <50% | <50% | <50% | <50% | <50% | <50% | <50% | <50% | <50% | 98% | 76% | <50% | <50% | <50% | <50% | 97% | % Binding (PIM2): <50%; % Binding (MAP4K5): <50%; % Binding (STK36): <50%; % Binding (PLK4): <50%; % Binding (NEK2): <50%; % Binding (TTK): <50%; % Binding (EPHA6): <50%; % Binding (STK10): <50%; % Binding (PDGFRA): <50%; % Binding (CAMK2B): <50%; % Binding (YES): <50%; % Binding (GAK): <50%; % Binding (TRKA): <50%; % Binding (AKT1): <50%; % Binding (CAMKK2): <50%; % Binding (HCK): <50%; % Binding (STK17B): 96%; % Binding (BIKE): <50%; % Binding (ITK): <50% |
| COc1cc(OC)c(C=C2C(O)=Nc3ccccc32)c(OC)c1 [IC261, 3-[(2,4,6-trimethoxyphenyl)methylidenyl]-indolin-2-one] | <50% | <50% | <50% | <50% | <50% | <50% | <50% | <50% | <50% | <50% | <50% | <50% | <50% | <50% | <50% | <50% | <50% | <50% | <50% | <50% | % Binding (PIM2): <50%; % Binding (MAP4K5): <50%; % Binding (STK36): <50%; % Binding (PLK4): <50%; % Binding (NEK2): <50%; % Binding (TTK): <50%; % Binding (EPHA6): <50%; % Binding (STK10): <50%; % Binding (PDGFRA): <50%; % Binding (CAMK2B): <50%; % Binding (YES): <50%; % Binding (GAK): <50%; % Binding (TRKA): <50%; % Binding (AKT1): <50%; % Binding (CAMKK2): <50%; % Binding (HCK): <50%; % Binding (STK17B): <50%; % Binding (BIKE): <50%; % Binding (ITK): <50% |
